From PMC5746119, “Pharmacologic characterization of SHR8443, a novel dual inhibitor of phosphatidylinositol 3-kinase and mammalian target of rapamycin” (Oncotarget, 2017)
Like-named read-outs stand apart in the source and are kept apart here.

Experiments:
[1] = test system: KRAS mutant A549 xenografts; assay: Tumor xenograft growth inhibition; type: in vivo, Balb/cA-nude mice; settings: 15 mg/kg oral daily
Description: (§1) Female, 5–6-wk-old Balb/cA-nude mice were purchased from Shanghai Laboratory Animal Center, Chinese Academy of Sciences (Shanghai, China). […] Tumor volume was calculated as (length × width^2)/2.

BT-474 xenografts = assay: Tumor xenograft growth inhibition; type: in vivo, Balb/cA-nude mice
Description: as §1

PC-3 xenografts = assay: Tumor xenograft growth inhibition; type: in vivo, Balb/cA-nude mice; settings: 30 mg/kg oral daily, final treatment day
Description: as §1

[2] = test system: trastuzumab-resistant BT-474/trastuzumab xenografts; assay: Tumor xenograft growth inhibition; type: in vivo, Balb/cA-nude mice
Description: as §1

U-87MG xenografts = assay: Tumor xenograft growth inhibition; type: in vivo, Balb/cA-nude mice
Description: as §1

[3] = test system: A375/TR (trametinib-resistant) cells; assay: Cell proliferation assay (SRB); type: cell-based, human; settings: for resistance factor (RF): A375/TR versus parental A375
Description: (§2) The following human tumor cell lines were obtained from the American Type Culture Collection (Manassas, VA, USA): breast tumor cell lines, MDA-MB-231, MDA-MB-435, MDA-MB-468, BT-474 and MCF7; lung tumor cell lines, A549 and Calu-3; ovarian tumor cell lines, SK-OV-3 and OVCAR3; colon tumor cell lines, SW620 and COLO205; glioma cell line, U-87MG; prostate tumor cell line, PC-3; and melanoma cell line, A375. All cell lines were cultured according to instructions provided by the American Type Culture Collection. The ovarian tumor cell line A2780 was obtained from the National Cancer Institute (Bethesda, MD, USA) and cultured according to the instructions provided. The dabrafenib- and trametinib-resistant A375 cell lines, A375/DR and A375/TR, respectively, were established by culturing parental cells in medium containing gradually increasing concentrations of dabrafenib (0.1–5,000 nM) or trametinib (0.05–50 nM) over the course of 12 months. […] All the cells have been tested and authenticated by Genesky Biotechnologies. Inc. (Shanghai, China) using fluorescent amplified restriction fragment polymorphism (FAFLP) method.
(§3) Tumor cells were seeded in 96-well plates and treated with serial dilutions of drugs alone or as a combination of two drugs. After a 72-h incubation, cell proliferation was evaluated by sulforhodamine B (SRB; Sigma) assay. […] The CI value which defines the interaction between two drugs as synergistic (CI < 0.95), additive (CI = 0.95–1.05) or antagonistic (CI > 1.05), was determined on the basis of the median-effect principle using CalcuSyn software.

[4] = test system: A375/DR (dabrafenib-resistant) cells; assay: Cell proliferation assay (SRB); type: cell-based, human; settings: for resistance factor (RF): A375/DR versus parental A375
Description: as §2, §3

[5] = Pharmacokinetic study in U-87MG tumor-bearing mice; type: in vivo, Balb/cA-nude mice; settings: single oral dose 10 mg/kg; for Cmax: female, Balb/cA-nude, mouse
Description: as §1
Pharmacokinetic/pharmacodynamic studies were carried out as described previously. Mice bearing U-87MG tumors received a single oral dose of 10 mg/kg SHR8443 or vehicle, and tumor tissues and blood were collected at different times. Concentrations of SHR8443 in plasma and tissue were determined by HPLC/tandem mass spectrometry. Tumor samples were analyzed by Western blotting. Animal experiments were conducted in accordance with the Institutional Animal Care and Use Committee guidelines of Shanghai Institute of Materia Medica, Chinese Academy of Sciences.

A549 cells = assay: Autophagy, LC3 immunoblotting; type: cell-based, human; settings: 48 h
Description: (§4) After drug treatment, cells were lysed in sodium dodecyl sulfate (SDS) sample buffer (100 mM Tris-HCl pH 6.8, 2% SDS, 20% glycerol, 1 mM dithiothreitol). Cell lysates containing equal amounts of protein were resolved by SDS-PAGE and transferred to polyvinylidene difluoride membranes. Blots were probed with primary antibodies, and then incubated with the appropriate secondary antibodies (Millipore). Immunoreactive bands were visualized using enhanced chemiluminescence reagents (Millipore).

[6] = test system: PI3K/mTOR signaling (AKT, S6, ERK phosphorylation); assay: Western blotting of PI3K/mTOR signaling in tumor cell lines; type: cell-based, human
Description: as §4

[7] = Tolerability (deaths, body weight) in xenograft-bearing mice; type: in vivo, Balb/cA-nude mice; settings: xenograft-bearing mice during the course of treatment
Description: as §1

[8] = test system: MCF7 and MDA-MB-468 cells; assay: Apoptosis by annexin V-FITC/PI staining and FACS; type: cell-based, human; settings: 72 h
Description: (§5) Cells were harvested and fixed in ice-cold 70% ethanol at −20°C overnight. Fixed cells were then treated with 50 μg/mL of propidium iodide and RNase A at 37°C for 30 min. The cell cycle distribution was measured using a FACScan flow cytometer (BD Biosciences, San Jose, CA, USA) and analyzed with ModFit LT Mac V3.0 software. Apoptosis was measured using a FITC Annexin V Apoptosis Detection Kit (BD Biosciences) according to the manufacturer's instructions. Fluorescence was acquired with an Accuri C6 Plus instrument (BD Biosciences).

A375 cells = assay: Cell proliferation assay (SRB); type: cell-based; settings: Homo sapiens, A-375, 72 h
Description: The following human tumor cell lines were obtained from the American Type Culture Collection (Manassas, VA, USA): breast tumor cell lines, MDA-MB-231, MDA-MB-435, MDA-MB-468, BT-474 and MCF7; lung tumor cell lines, A549 and Calu-3; ovarian tumor cell lines, SK-OV-3 and OVCAR3; colon tumor cell lines, SW620 and COLO205; glioma cell line, U-87MG; prostate tumor cell line, PC-3; and melanoma cell line, A375. All cell lines were cultured according to instructions provided by the American Type Culture Collection. The ovarian tumor cell line A2780 was obtained from the National Cancer Institute (Bethesda, MD, USA) and cultured according to the instructions provided. The dabrafenib- and trametinib-resistant A375 cell lines, A375/DR and A375/TR, respectively, were established by culturing parental cells in medium containing gradually increasing concentrations of dabrafenib (0.1–5,000 nM) or trametinib (0.05–50 nM) over the course of 12 months. […]
as §3

[9] = test system: panel of human tumor cell lines; assay: Cell proliferation assay (SRB), panel of human tumor cell lines; type: cell-based; settings: 72 h
Description: as §2, §3

[10] = test system: MCF7, MDA-MB-468, COLO205, and A549 cell lines; assay: Cell cycle distribution by flow cytometry; type: cell-based, human; settings: 24 h treatment
Description: as §5

mTOR = mTOR (Homo sapiens, UniProt P42345); assay: mTOR kinase activity assay (K-LISA mTOR Activity Kit); type: biochemical; settings: means ± SD (n = 3)
Description: (§6) PI3K enzyme-linked immunosorbent assays (ELISAs) were performed using the PI3Kinase Activity/Inhibitor Assay Kit (Millipore, Bedford, MA, USA) according to the manufacturer's instructions as described previously. mTOR kinase activity was assayed using the K-LISA mTOR Activity Kit (Calbiochem, Bedford, MA, USA) according to the manufacturer's instructions.

[11] = test system: panel of other protein kinases; assay: Panel of other protein kinases; type: biochemical; settings: 1000 nM; data not shown
PI3Kδ = PI3Kδ (Homo sapiens, UniProt O00329); assay: PI3K ELISA (PI3Kinase Activity/Inhibitor Assay Kit); type: biochemical; settings: PI3Kδ (p110δ); means ± SD (n = 3)
Sequence of PI3Kδ (O00329 whole entry): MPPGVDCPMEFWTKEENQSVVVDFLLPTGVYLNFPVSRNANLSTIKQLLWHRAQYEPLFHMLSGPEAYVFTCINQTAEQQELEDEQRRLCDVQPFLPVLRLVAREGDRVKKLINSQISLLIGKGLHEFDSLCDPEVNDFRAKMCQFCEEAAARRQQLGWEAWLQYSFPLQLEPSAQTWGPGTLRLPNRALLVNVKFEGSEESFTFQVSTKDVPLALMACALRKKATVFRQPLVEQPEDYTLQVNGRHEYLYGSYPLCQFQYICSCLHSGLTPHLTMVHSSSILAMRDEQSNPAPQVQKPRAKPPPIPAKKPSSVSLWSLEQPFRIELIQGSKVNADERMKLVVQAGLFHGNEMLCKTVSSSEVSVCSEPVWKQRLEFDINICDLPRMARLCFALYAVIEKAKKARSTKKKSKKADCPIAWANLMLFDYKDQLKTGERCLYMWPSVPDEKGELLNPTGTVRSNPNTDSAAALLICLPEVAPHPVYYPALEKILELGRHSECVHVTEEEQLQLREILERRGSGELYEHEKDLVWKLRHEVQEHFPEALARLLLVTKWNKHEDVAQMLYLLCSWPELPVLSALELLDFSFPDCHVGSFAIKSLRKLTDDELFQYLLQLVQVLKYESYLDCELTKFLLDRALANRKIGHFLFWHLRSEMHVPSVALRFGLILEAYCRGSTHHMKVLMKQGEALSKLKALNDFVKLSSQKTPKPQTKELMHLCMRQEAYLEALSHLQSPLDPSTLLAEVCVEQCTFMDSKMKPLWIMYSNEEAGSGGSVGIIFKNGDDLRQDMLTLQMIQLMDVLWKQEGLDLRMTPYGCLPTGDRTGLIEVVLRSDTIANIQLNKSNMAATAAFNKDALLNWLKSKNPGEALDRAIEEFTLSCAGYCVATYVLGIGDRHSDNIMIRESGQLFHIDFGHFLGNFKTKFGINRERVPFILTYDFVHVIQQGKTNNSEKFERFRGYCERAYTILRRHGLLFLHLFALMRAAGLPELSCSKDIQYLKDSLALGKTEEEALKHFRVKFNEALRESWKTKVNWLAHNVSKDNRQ
Sequence of PI3Kδ (P27986 whole entry partner): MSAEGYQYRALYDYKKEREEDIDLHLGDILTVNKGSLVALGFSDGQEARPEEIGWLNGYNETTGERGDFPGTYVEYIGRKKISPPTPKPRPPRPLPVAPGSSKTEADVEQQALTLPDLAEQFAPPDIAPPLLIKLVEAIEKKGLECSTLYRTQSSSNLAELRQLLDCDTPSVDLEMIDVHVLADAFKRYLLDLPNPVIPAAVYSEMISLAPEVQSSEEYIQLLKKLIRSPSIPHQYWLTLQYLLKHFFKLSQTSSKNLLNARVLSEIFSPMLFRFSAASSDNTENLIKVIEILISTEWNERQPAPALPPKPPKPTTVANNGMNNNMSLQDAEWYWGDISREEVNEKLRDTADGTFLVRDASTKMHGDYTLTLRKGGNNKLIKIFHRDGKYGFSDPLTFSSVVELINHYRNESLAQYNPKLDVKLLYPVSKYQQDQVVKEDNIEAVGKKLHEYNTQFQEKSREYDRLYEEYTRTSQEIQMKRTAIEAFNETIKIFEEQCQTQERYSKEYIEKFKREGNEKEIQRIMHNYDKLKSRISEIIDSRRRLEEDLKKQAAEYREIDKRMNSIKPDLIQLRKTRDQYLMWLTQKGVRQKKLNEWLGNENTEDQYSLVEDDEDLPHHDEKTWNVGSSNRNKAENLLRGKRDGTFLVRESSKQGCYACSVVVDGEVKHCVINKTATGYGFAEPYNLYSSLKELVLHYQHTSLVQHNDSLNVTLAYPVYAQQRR
Description: as §6

PI3Kγ = PI3Kγ (Homo sapiens, UniProt P48736); assay: as above; type: biochemical; settings: PI3Kγ (p110γ); means ± SD (n = 3)
Sequence of PI3Kγ (P48736 whole entry): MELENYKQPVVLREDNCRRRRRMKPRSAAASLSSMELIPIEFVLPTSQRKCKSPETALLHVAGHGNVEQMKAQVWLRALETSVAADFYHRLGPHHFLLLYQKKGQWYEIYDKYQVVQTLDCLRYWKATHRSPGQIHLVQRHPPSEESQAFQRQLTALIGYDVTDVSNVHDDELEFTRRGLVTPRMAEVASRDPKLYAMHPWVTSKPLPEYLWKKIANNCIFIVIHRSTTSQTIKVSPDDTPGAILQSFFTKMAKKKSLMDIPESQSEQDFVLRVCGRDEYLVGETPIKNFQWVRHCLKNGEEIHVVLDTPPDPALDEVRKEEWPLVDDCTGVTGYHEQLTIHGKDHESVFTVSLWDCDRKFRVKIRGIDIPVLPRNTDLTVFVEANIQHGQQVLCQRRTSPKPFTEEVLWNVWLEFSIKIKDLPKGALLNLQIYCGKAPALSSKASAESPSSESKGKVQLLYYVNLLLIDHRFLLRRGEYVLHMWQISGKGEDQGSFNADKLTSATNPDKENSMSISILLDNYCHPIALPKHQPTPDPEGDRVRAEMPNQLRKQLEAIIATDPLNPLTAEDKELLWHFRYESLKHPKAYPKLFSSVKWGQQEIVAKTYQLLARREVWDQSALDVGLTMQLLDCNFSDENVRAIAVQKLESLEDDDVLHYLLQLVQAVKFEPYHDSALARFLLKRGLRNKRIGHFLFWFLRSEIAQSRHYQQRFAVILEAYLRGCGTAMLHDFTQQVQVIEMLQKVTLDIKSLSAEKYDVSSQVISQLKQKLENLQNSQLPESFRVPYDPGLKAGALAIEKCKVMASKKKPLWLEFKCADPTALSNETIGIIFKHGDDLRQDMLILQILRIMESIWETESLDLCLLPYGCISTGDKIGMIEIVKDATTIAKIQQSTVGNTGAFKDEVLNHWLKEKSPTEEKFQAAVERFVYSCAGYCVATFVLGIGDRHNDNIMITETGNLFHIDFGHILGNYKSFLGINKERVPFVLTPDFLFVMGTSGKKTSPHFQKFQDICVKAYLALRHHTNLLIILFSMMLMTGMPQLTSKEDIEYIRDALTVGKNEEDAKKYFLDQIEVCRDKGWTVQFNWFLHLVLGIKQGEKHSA
Description: as §6

PI3Kβ = PI3Kβ (Homo sapiens, UniProt P42338); assay: as above; type: biochemical; settings: PI3Kβ (p110β); means ± SD (n = 3)
Sequence of PI3Kβ (P42338 whole entry): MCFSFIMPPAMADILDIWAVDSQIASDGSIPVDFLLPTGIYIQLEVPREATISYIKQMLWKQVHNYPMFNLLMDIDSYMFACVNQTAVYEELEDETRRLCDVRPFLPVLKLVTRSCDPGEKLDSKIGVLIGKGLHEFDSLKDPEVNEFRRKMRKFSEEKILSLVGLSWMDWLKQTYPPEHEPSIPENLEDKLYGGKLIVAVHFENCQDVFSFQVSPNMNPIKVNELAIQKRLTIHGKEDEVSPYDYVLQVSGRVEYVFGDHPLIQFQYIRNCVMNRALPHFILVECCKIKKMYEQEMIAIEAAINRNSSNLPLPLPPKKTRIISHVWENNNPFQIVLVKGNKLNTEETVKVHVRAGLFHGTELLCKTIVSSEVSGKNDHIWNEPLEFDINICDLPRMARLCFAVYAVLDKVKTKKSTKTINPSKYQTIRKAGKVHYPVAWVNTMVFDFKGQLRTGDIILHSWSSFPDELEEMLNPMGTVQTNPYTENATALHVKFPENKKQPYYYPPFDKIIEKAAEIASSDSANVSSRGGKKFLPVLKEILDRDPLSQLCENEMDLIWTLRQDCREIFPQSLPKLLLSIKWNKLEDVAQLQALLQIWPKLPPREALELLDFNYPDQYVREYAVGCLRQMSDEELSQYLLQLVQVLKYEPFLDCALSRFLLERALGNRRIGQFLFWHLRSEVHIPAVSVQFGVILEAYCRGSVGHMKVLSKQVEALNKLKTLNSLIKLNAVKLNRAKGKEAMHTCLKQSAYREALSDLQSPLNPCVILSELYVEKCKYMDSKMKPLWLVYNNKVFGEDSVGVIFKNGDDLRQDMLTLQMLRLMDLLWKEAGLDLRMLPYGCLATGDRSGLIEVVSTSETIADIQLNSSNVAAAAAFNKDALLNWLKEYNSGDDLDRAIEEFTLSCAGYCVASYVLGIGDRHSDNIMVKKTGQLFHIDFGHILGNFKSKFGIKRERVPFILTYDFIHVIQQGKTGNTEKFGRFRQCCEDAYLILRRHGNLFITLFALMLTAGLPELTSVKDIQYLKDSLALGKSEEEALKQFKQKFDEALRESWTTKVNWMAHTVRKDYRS
Sequence of PI3Kβ (P27986 whole entry partner): as the sequence (P27986 whole entry partner) above
Description: as §6

PI3Kα = PI3Kα (Homo sapiens, UniProt P42336); assay: as above; type: biochemical; settings: PI3Kα (p110α); means ± SD (n = 3)
Sequence of PI3Kα (P42336 whole entry): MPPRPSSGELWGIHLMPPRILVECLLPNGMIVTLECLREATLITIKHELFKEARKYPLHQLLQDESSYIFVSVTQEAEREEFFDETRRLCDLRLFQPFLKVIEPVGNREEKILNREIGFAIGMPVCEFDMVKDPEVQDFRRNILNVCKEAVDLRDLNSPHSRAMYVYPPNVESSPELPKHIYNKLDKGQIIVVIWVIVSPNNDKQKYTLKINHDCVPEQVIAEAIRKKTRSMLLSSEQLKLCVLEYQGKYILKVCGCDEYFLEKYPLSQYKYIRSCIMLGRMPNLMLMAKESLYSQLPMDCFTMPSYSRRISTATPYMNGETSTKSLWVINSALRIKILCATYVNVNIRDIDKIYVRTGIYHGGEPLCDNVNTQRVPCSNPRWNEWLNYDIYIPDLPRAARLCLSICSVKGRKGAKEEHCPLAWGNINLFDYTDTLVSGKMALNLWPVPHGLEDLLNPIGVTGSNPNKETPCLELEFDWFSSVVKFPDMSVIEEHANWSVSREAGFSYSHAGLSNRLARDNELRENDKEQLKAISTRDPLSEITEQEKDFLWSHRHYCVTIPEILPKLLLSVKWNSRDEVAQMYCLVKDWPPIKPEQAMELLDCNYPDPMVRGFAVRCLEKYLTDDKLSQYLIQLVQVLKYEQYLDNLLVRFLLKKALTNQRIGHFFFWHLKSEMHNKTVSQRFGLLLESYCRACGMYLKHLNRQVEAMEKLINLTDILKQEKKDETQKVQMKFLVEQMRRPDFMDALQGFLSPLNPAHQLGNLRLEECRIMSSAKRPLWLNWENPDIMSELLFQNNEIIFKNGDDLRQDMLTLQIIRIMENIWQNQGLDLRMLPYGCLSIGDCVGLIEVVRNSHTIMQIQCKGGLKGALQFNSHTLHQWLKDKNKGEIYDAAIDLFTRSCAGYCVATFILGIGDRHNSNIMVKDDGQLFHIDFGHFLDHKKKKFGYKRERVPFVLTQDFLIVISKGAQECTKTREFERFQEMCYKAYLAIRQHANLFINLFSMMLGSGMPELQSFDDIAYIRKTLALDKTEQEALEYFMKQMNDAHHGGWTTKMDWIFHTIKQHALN
Sequence of PI3Kα (P27986 whole entry partner): as the sequence (P27986 whole entry partner) above
Description: as §6

[12] = 30 mg/kg oral daily, final treatment day

SMILES: CNC(=O)Nc1ccc(-c2ccc3ncc4c(c3c2)n(-c2cccc(C(F)(F)F)c2)c(=O)n4C)cn1 [SHR8443, 1-methyl-3-(5-(3-methyl-2-oxo-1-(3-(trifluoromethyl)phenyl)-2,3-dihydro-1H–imidazo [4,5-c]quinolin-8-yl)pyridin-2-yl) urea]
- tumor growth inhibition (TGI) [1]: 86%
- tumor regression (BT-474 xenografts; 30 mg/kg): one of six tumors
- tumor growth inhibition (TGI) (BT-474 xenografts; [12]): 87%
- tumor growth inhibition (TGI) (PC-3 xenografts): 75%
- tumor growth inhibition (TGI) ([2]; 30 mg/kg oral daily): 79%
- tumor regression (U-87MG xenografts; 30 mg/kg): one of six tumors
- tumor growth inhibition (TGI) (U-87MG xenografts; [12]): 95%
- IC50 ([3]; Homo sapiens, A-375, A375/TR cells, 72 h, SRB assay): 4.9 nM
- IC50 ([4]; Homo sapiens, A-375, A375/DR cells, 72 h, SRB assay): 3.4 nM
- Cmax ([5]; plasma, read-out: Cmax in plasma): 735 ng/mL
- Cmax ([5]; tumor tissue, read-out: Cmax in tumor tissue): 181 ng/g
- time of Cmax (plasma and tumor tissue) [5]: 8 h
- LC3-II production (autophagy) (A549 cells): increased the production of LC3-II in a concentration-dependent manner
- phosphorylation of AKT and S6 ([6]; COLO205 (BRAF mutant), A549 and SW620 (KRAS mutant) cells, 3 h): significantly inhibited
- level of phosphorylated ERK (pERK) ([6]; COLO205, A549, SW620 cells): No change
- AKT and S6 phosphorylation ([6]; MCF7, MDA-MB-468, BT-474 breast cancer cells, 3 h): inhibited
- reversibility of inhibitory activity after removal from medium ([6]; MDA-MB-468 cells, 100 nM for 2 h then drug-free medium): reversible
- duration of inhibition of AKT, S6K and S6 phosphorylation ([6]; U-87MG cells, 100 nM): at least 48 h
- tolerability (drug-related deaths, body weight loss) [7]: well tolerated
- necrotic/apoptotic cell death [8]: concentration-dependent increase
- IC50 (A375 cells): 4.1 nM
- IC50 ([9]; read-out: IC50 values, proliferation, range over all tested tumor cells): 2.9 to 13.9 nM
- IC50 ([9]; read-out: average (mean) IC50, proliferation, all tested tumor cells): 7.5 nM
- IC50 ([9]; read-out: mean IC50 in KRAS/BRAF mutant tumor cells): 7.3 nM
- cell cycle effect [10]: concentration-dependent G1-phase cell-cycle arrest
- IC50 (mTOR): 7.8 ± 1.1 nM
- inhibitory activity against a panel of other protein kinases [11]: little inhibitory activity
- IC50 (PI3Kδ): 0.7 ± 0.2 nM
- IC50 (PI3Kγ): 0.2 ± 0.2 nM
- IC50 (PI3Kβ): 15.8 ± 3.8 nM
- IC50 (PI3Kα): 0.1 nM

SMILES: CC(=O)Nc1cccc(-n2c(=O)n(C3CC3)c(=O)c3c(Nc4ccc(I)cc4F)n(C)c(=O)c(C)c32)c1 [trametinib]
- resistance factor (RF) [3]: 39.8
- resistance factor (RF) [4]: 45.1

SMILES: CC(C)(C)c1nc(-c2cccc(NS(=O)(=O)c3c(F)cccc3F)c2F)c(-c2ccnc(N)n2)s1 [dabrafenib]
- resistance factor (RF) [3]: 61.0
- resistance factor (RF) [4]: 839.2

SMILES: Cn1c(=O)n(-c2ccc(C(C)(C)C#N)cc2)c2c3cc(-c4cnc5ccccc5c4)ccc3ncc21 [BEZ235, reference compound]
- tumor growth inhibition (TGI) ([2]; 60 mg/kg oral daily): 39%
